± gives the expanded uncertainty stated by the source.
Assay: xn = mol fraction of the nth substance listed
Conditions: 100 kPa, Liquid; for speed of sound: Sing-around technique in a fixed-path interferometer; for mass density: Vibrating tube method

CCOCCO [2-ethoxyethan-1-ol] + O
Conditions	mass density, x1 = 0.9426 [kg/m3]	mass density, x1 = 0.949 [kg/m3]	mass density, x1 = 0.9549 [kg/m3]	mass density, x1 = 0.9567 [kg/m3]	mass density, x1 = 0.967 [kg/m3]	speed of sound, x1 = 0.9426 [m/s]	speed of sound, x1 = 0.949 [m/s]	speed of sound, x1 = 0.9549 [m/s]	speed of sound, x1 = 0.9567 [m/s]	speed of sound, x1 = 0.967 [m/s]
283.15 K	943.675 ± 2	943.444 ± 2	943.15 ± 2	943.112 ± 2	942.599 ± 2	1364 ± 1.6	1365.8 ± 1.6	1366.2 ± 1.6	1366.8 ± 1.6	1361.6 ± 1.8
288.15 K	939.208 ± 2	938.975 ± 2	938.68 ± 2	938.638 ± 2	938.12 ± 2	1346.2 ± 1.6	1347.5 ± 1.5	1347.9 ± 1.6	1348.4 ± 1.6	1343.5 ± 1.8
293.15 K	934.713 ± 2	934.479 ± 2	934.183 ± 2	934.14 ± 2	933.622 ± 2	1328.3 ± 1.5	1329.2 ± 1.5	1329.6 ± 1.6	1330.2 ± 1.6	1325.6 ± 1.8
298.15 K	930.19 ± 2	929.953 ± 2	929.657 ± 2	929.614 ± 2	929.099 ± 2	1310.5 ± 1.5	1311.1 ± 1.5	1311.3 ± 1.6	1311.8 ± 1.6	1307.8 ± 1.7
303.15 K	925.638 ± 2	925.399 ± 2	925.102 ± 2	925.055 ± 2	924.54 ± 2	1292.8 ± 1.5	1293 ± 1.5	1293.2 ± 1.6	1292.6 ± 1.6	1289.8 ± 1.6
308.15 K	921.054 ± 2	920.815 ± 2	920.517 ± 2	920.467 ± 2	919.951 ± 2	1275 ± 1.5	1275.3 ± 1.5	1275.2 ± 1.6	1274.3 ± 1.6	1272 ± 1.6
313.15 K	916.435 ± 2	916.194 ± 2	915.892 ± 2	915.843 ± 2	915.328 ± 2	1257.4 ± 1.5	1257.6 ± 1.5	1256.6 ± 1.6	1256.1 ± 1.6	1254.3 ± 1.6
323.15 K	907.087 ± 2	906.839 ± 2	906.54 ± 2	906.493 ± 2	905.969 ± 2	1222.2 ± 1.5	1222.2 ± 1.5	1220.3 ± 1.5	1220.2 ± 1.5	1218.9 ± 1.5
333.15 K	897.58 ± 2	897.329 ± 2	897.036 ± 2	896.985 ± 2	896.461 ± 2	1187.1 ± 1.5	1186.9 ± 1.5	1185.1 ± 1.5	1184.9 ± 1.5	1183.7 ± 1.5
343.15 K	887.911 ± 2	887.628 ± 2	887.337 ± 2	887.297 ± 2	886.774 ± 2	1152 ± 1.5	1151.1 ± 1.5	1150.1 ± 1.5	1149.8 ± 1.5	1148.6 ± 1.5

CCOCCOCCO [3,6-dioxa-1-octanol] + O
Conditions	mass density, x1 = 0.9674 [kg/m3]	mass density, x1 = 0.974 [kg/m3]	mass density, x1 = 0.9826 [kg/m3]	mass density, x1 = 0.9887 [kg/m3]	mass density, x1 = 0.9899 [kg/m3]	speed of sound, x1 = 0.9674 [m/s]	speed of sound, x1 = 0.974 [m/s]	speed of sound, x1 = 0.9826 [m/s]	speed of sound, x1 = 0.9887 [m/s]	speed of sound, x1 = 0.9899 [m/s]
283.15 K	997.734 ± 2.1	997.587 ± 2.1	997.387 ± 2.1	997.339 ± 2.1	997.227 ± 2.1	1430.8 ± 2.3	1430.3 ± 2.3	1429.4 ± 2.3	1429.6 ± 2.3	1429.6 ± 2.3
288.15 K	993.31 ± 2.1	993.16 ± 2.1	992.963 ± 2.1	992.908 ± 2.1	992.793 ± 2.1	1412.8 ± 2.3	1412.2 ± 2.3	1411.4 ± 2.3	1411.4 ± 2.3	1411.2 ± 2.3
293.15 K	988.877 ± 2.1	988.725 ± 2.1	988.528 ± 2.1	988.475 ± 2.1	988.357 ± 2.1	1394.9 ± 2.3	1394.3 ± 2.3	1393.5 ± 2.3	1393.6 ± 2.3	1393.3 ± 2.3
298.15 K	984.434 ± 2.1	984.285 ± 2.1	984.088 ± 2.1	984.028 ± 2.1	983.913 ± 2.1	1377.3 ± 2.3	1376.5 ± 2.3	1375.7 ± 2.3	1375.7 ± 2.3	1375.4 ± 2.3
303.15 K	979.981 ± 2.1	979.829 ± 2.1	979.636 ± 2.1	979.572 ± 2.1	979.459 ± 2.1	1359.6 ± 2.3	1358.8 ± 2.3	1358 ± 2.3	1357.9 ± 2.3	1357.5 ± 2.3
308.15 K	975.514 ± 2.1	975.363 ± 2.1	975.164 ± 2.1	975.102 ± 2.1	974.991 ± 2.1	1342 ± 2.3	1341.3 ± 2.3	1340.5 ± 2.3	1340.1 ± 2.3	1340 ± 2.3
313.15 K	971.029 ± 2.1	970.88 ± 2.1	970.684 ± 2.1	970.62 ± 2.1	970.511 ± 2.1	1324.4 ± 2.3	1323.9 ± 2.3	1323.1 ± 2.3	1322.7 ± 2.3	1322.5 ± 2.3
323.15 K	962.022 ± 2	961.873 ± 2.1	961.673 ± 2.1	961.608 ± 2.1	961.499 ± 2.1	1289.8 ± 2.3	1289.3 ± 2.3	1288.5 ± 2.3	1287.9 ± 2.3	1287.8 ± 2.3
333.15 K	952.945 ± 2	952.794 ± 2	952.591 ± 2.1	952.534 ± 2.1	952.422 ± 2.1	1255.6 ± 2.3	1255 ± 2.3	1254.2 ± 2.3	1253.7 ± 2.3	1253.5 ± 2.3
343.15 K	943.775 ± 2	943.629 ± 2	943.425 ± 2.1	943.381 ± 2.1	943.264 ± 2.1	1221.7 ± 2.3	1221.1 ± 2.3	1220.3 ± 2.3	1220 ± 2.3	1219.7 ± 2.3

Source: the NIST ThermoML archive (doi:10.1021/acs.jced.5b00662)
